In US12606528B2, “Methods and materials for inhibiting NF-kB activity” (University of Pittsburgh - Of the Commonwealth System of …, priority 2019, dated 2026):
Like-named read-outs stand apart in the source and are kept apart here.

What was measured:
NF-κB = NF-κB assay: THP1-NF-κB-LUC cells, LPS-stimulated secreted luciferase; format: cell-based; settings: THP1-NF-κB-LUC cells, read-out: IC50 (NF-κB assay)
Procedure, shortened: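 THP1-NF-κB-LUC cells (25k/well) were pretreated with compounds for 2 h, then stimulated with LPS (10 ng/mL) for 18 h. Secreted luciferase was measured and normalized to vehicle, and IC50 was fitted from the concentration series.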

TNF release = assay: TNF assay: TNF release from LPS-stimulated human PBMCs (TNF ELISA); format: cell-based; settings: PBMC, read-out: IC50 (TNF assay)
Procedure, shortened: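 Human PBMCs at 10k/well pretreated with compound dilutions 2 h, then stimulated with LPS (10 ng/mL) for 18 h. TNF in supernatants quantified by ELISA; IC50 for inhibition of TNF release fitted from concentration–response.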

[1] = compounds 2 hours before LPS (10 ng/mL) for 18 hours, secreted luciferase
[2] = human PBMCs, compounds 2 hours before LPS (10 ng/ml) for 18 hours, supernatant TNF ELISA
[3] = LPS-stimulated human PBMCs, TNF ELISA

| Compound | IC50 (NF-κB; [1]) [nM] | IC50 (TNF release; [2]) [µM] | IC50 (NF-κB; LPS-stimulated) [nM] | IC50 (TNF release; [3]) [µM] |
| --- | --- | --- | --- | --- |
| CC1Oc2c(cc(Br)cc2S(=O)(=O)N2CCN(C)CC2)NC1=O (stereo not shown) [BC19228] | > 10000 | > 10 |  |  |
| CC(C)S(=O)(=O)c1oc(-c2cccc(F)c2)nc1S(=O)(=O)c1ccc(Cl)cc1 [BC19411] |  |  | < 100 | < 0.1 |
| CN1CCN(C(=O)c2ccc3nc(-c4cccc(N(C)C)c4)c(-c4cccc(N(C)C)c4)nc3c2)CC1 [BC19498] |  |  | > 10000 | > 10 |
| Cc1ccc(S(=O)(=O)c2c(O)[nH]c3ncccc3c2=O)cc1F [BC19322] | 1000 to 10000 | > 10 |  |  |
| CC(C)c1ccc(NS(=O)(=O)c2cc(Br)cc3c2OCCNC3=O)cc1 [BC19605] |  |  | > 10000 | > 10 |
| O=C1CCOc2cc(S(=O)(=O)Nc3ccc(F)cc3Cl)c(Br)cc2N1 [BC19658] |  |  | > 10000 | > 10 |
| O=C1COc2cc(S(=O)(=O)NCc3ccc(C(F)(F)F)cc3)c(Br)cc2N1 [BC19391] | > 10000 | > 10 |  |  |
| C#CCNC(=O)c1ccc2nc(-c3ccc(F)cc3)c(-c3ccc(F)cc3)nc2c1 [BC19154] |  |  | < 100 | > 10 |
| CC(C)S(=O)(=O)c1oc(-c2ccccc2)nc1S(=O)(=O)c1ccc(F)c(F)c1 [BC19274] |  |  | < 100 | 0.1 to 1 |
| Cc1ccc(NS(=O)(=O)c2c(C)c(Cl)cc3c2OCC(=O)N3)cc1Cl [BC19433] | < 100 | > 10 |  |  |
| CCS(=O)(=O)c1oc(-c2ccc(C)cc2)nc1S(=O)(=O)c1ccc(Cl)cc1 [BC19127] |  |  | < 100 | 1 to 10 |
| CC(C)CS(=O)(=O)c1oc(-c2ccccc2)nc1S(=O)(=O)c1cccc(F)c1 [BC19270] |  |  | < 100 | < 0.1 |
| Cc1ccc(Cl)c2c(=O)c(S(=O)(=O)c3ccc(F)c(F)c3)c[nH]c12 [BC19254] | < 100 | > 10 |  |  |
| O=C1NCCOc2c1cc(Br)cc2S(=O)(=O)Nc1cccc(Cl)c1 [BC19611] |  |  | < 100 | > 10 |
| CC1Oc2cc(S(=O)(=O)Nc3cccc(F)c3)c(Br)cc2N(C)C1=O (stereo not shown) [BC19903] | 100 to 1000 | > 10 |  |  |
| CS(=O)(=O)c1cc2c(c(S(=O)(=O)Nc3ccc(OC(F)(F)F)cc3)c1)OCC(=O)N2 [BC19422] | < 100 | > 10 |  |  |
| CCS(=O)(=O)c1cc2c(c(S(=O)(=O)Nc3ccc(OC(F)(F)F)cc3)c1)OCC(=O)N2 [BC19435] | < 100 | > 10 |  |  |
| Fc1ccc(-c2nc3ccc(-c4ncco4)cc3nc2-c2ccc(F)cc2)cc1 [BC19145] |  |  | 1000 to 10000 | > 10 |
| COCCNS(=O)(=O)c1ccc2nc(-c3ccc(F)cc3)c(-c3ccc(F)cc3)nc2c1 [BC19507] |  |  | < 100 | > 10 |
| Cc1nc2c(S(=O)(=O)c3ccccc3)c([S+](C)[O-])nn2c(C)c1C (stereo not shown) [BC19340] |  |  | > 10000 | > 10 |
| O=c1c(S(=O)(=O)c2cccc(F)c2)c(O)[nH]c2ncccc12 [BC19409] | > 10000 | > 10 |  |  |
| CCCNS(=O)(=O)c1cc2c(cc1Br)NC(=O)C(CC)O2 (stereo not shown) [BC19222] | > 10000 | > 10 |  |  |
| O=C1NCCOc2c1cc(Br)cc2S(=O)(=O)Nc1ccccc1 [BC19553] |  |  | 1000 to 10000 | > 10 |
| O=S(=O)(CC1CC1)c1sc(-c2ccccc2)nc1S(=O)(=O)c1ccc(Cl)cc1 [BC19525] |  |  | 1000 to 10000 | 1 to 10 |
| O=c1c(S(=O)(=O)c2ccc(F)c(F)c2)c[nH]c2c(Cl)ccc(F)c12 [BC19196] | 100 to 1000 | > 10 |  |  |
| CCC1Oc2cc(S(=O)(=O)Nc3ccccc3)c(Br)cc2N(C)C1=O (stereo not shown) [BC19928] | 100 to 1000 | 1 to 10 |  |  |
| CCC1Oc2c(cc(Cl)cc2S(=O)(=O)Nc2ccc(C)c(Cl)c2)NC1=O (stereo not shown) [BC19746] | < 100 | > 10 |  |  |

| Compound | IC50 (NF-κB; [1]) [nM] | IC50 (TNF release; [2]) [µM] | IC50 (NF-κB; LPS-stimulated) [nM] | IC50 (TNF release; [3]) [µM] |
| --- | --- | --- | --- | --- |
| CC(C)CC1Oc2c(cc(Br)cc2S(=O)(=O)Nc2ccc(F)cc2)NC1=O (stereo not shown) [BC19781] | < 100 | 1 to 10 |  |  |
| CS(=O)(=O)c1oc(-c2ccccc2)nc1S(=O)(=O)c1cccc(F)c1 [BC19261] |  |  | < 100 | > 10 |
| O=S(=O)(c1ccc(F)cc1)c1nc(-c2ccccc2)[nH]c1[S+]([O-])CC1CC1 (stereo not shown) [BC19469] |  |  | 1000 to 10000 | > 10 |
| NC(=O)c1ccc2nc(-c3ccc(F)cc3)c(-c3cccs3)nc2c1 [BC19187] |  |  | 100 to 1000 | > 10 |
| COCCS(=O)(=O)c1oc(-c2cccc(F)c2)nc1S(=O)(=O)c1ccc(Cl)cc1 [BC19352] |  |  | 100 to 1000 | < 0.1 |
| CCCNS(=O)(=O)c1cc(Br)cc2c1OC(CC)C(=O)N2 (stereo not shown) [BC19229] | 1000 to 10000 | > 10 |  |  |
| CC(C)CC(=O)N1c2cc(S(=O)(=O)N3CCCC3)ccc2NC(=O)C1C (stereo not shown) [BC19184] |  |  | > 10000 | > 10 |
| O=C1COc2cc(S(=O)(=O)Nc3ccc(OC(F)(F)F)cc3)c(Cl)cc2N1 [BC19164] | < 100 | > 10 |  |  |
| CCc1ccc(NS(=O)(=O)c2cc3c(cc2Br)NC(=O)CCO3)cc1 [BC19690] |  |  | > 10000 | > 10 |
| COCC[S+]([O-])c1oc(-c2ccccc2)nc1S(=O)(=O)c1cccc(F)c1 (stereo not shown) [BC19272] |  |  | < 100 | < 0.1 |
| CCCS(=O)(=O)c1oc(-c2ccccc2)nc1S(=O)(=O)c1ccc(F)c(F)c1 [BC19273] |  |  | 100 to 1000 | 0.1 to 1 |
| CCCS(=O)(=O)c1oc(-c2ccccc2)nc1S(=O)(=O)c1ccc(Cl)cc1 [BC19521] |  |  | < 100 | 0.1 to 1 |
| CCC1Oc2c(cc(Cl)cc2S(=O)(=O)Nc2ccc(OC)c(Cl)c2)NC1=O (stereo not shown) [BC19744] | < 100 | 1 to 10 |  |  |
| O=c1[nH]ccc2cc(Sc3ccc(F)cc3)ccc12 [BC19580] | > 10000 | > 10 |  |  |
| COc1ccc(NS(=O)(=O)c2cc(S(C)(=O)=O)cc3c2OCC(=O)N3)cc1Cl [BC19429] | > 10000 | > 10 |  |  |
| CCC[S+]([O-])c1sc(-c2ccccc2F)nc1S(=O)(=O)c1ccc(Cl)cc1 (stereo not shown) [BC19627] |  |  | 1000 to 10000 | > 10 |
| CC1Oc2c(cc(Br)cc2S(=O)(=O)NCc2ccc(F)cc2F)NC1=O (stereo not shown) [BC19362] | 100 to 1000 | > 10 |  |  |
| CN1CCN(C(=O)c2ccc3nc(C(F)(F)F)c(-c4cccnc4)nc3c2)CC1 [BC19105] |  |  | > 10000 | > 10 |
| CS(=O)(=O)c1cc2c(c(S(=O)(=O)Nc3ccc(F)cc3Cl)c1)OCC(=O)N2 [BC19428] | 100 to 1000 | > 10 |  |  |
| O=S(=O)(CC1CC1)c1oc(-c2cccc(F)c2)nc1S(=O)(=O)c1ccc(Cl)cc1 [BC19350] |  |  | 1000 to 10000 | 1 to 10 |
| CCS(=O)(=O)c1cc2c(c(S(=O)(=O)Nc3ccc(OC)c(Cl)c3)c1)OCC(=O)N2 [BC19547] | 100 to 1000 | > 10 |  |  |
| CC1Oc2c(cc(Br)cc2S(=O)(=O)Nc2ccc(OC(F)(F)F)cc2)N(C)C1=O (stereo not shown) [BC19783] | < 100 | > 10 |  |  |
| O=S(=O)(c1ccc(Br)cc1)c1cnccc1O [BC 19460] | > 10000 | > 10 |  |  |
| CS(=O)(=O)c1sc(-c2ccccc2)nc1S(=O)(=O)c1ccc(Cl)cc1 [BC19471] |  |  | 1000 to 10000 | 1 to 10 |
| Cc1ccc(NS(=O)(=O)c2cc(Br)cc3c2OC(CC(C)C)C(=O)N3)cc1Cl (stereo not shown) [BC19767] | < 100 | > 10 |  |  |
| O=C1COc2c(cc(Br)cc2S(=O)(=O)NC2CCC(O)CC2)N1 (stereo not shown) [BC19381] | > 10000 | > 10 |  |  |
